Measurements taken from patent publication US12295951B2, “Compounds for use in a method of treating or preventing neurological and/or psychiatric disorders” (The Beckley Foundation, priority 2019, dated 2025).

Tests used:
Old animals (rats) = test: Enriched environment test (LSD plus cognitive training) with novel object preference in old rats; type: in vivo, rat; conditions: 0.13 mg/kg for 1 day or 3 consecutive days, then enriched environment 6 days (3 h per day)
Procedure: The potential of the test compound combined with a cognitive training to rescue cognitive functions (called “enriched environment”) was evaluated in old animals according to the experimental design depicted in FIG. 3A. More specifically, the enriched environment test was carried out as follows:
Old animal (about 12-18 months) were administered with saline (control group) or 0.13 mg/kg of test compound (LSD) for 1 day or 3 consecutive days, followed by exposure to an enriched environment for 6 consecutive days (3 hours each day). The enriched environment used herein typically consists of card boxes with 8 different rooms, wherein it is possible to find a variety of objects such as PVC tubes, toilet paper cardboard tubes or wood objects so as to stimulate the exploratory behavior. The animals were allowed to explore the enriched environment freely in groups of 3 to 5 animals. The effects of the test compound followed by the enriched environment were analyzed using one-way ANOVA, followed by Tukey HSD. The statistical analyses were performed using open source programming language R (version 3.6.0). The Mann-Whitney U test was used to compare the performance of old animals exposed to the enriched environment to that of old animals treated with saline and unexposed to the enriched environment.

Wistar Rats = test: Novel object preference test in rats; type: in vivo, rat; conditions: for novel object preference: tested days after administration
Procedure: The effects of the test compound on cognitive functions in rodents, in particular on memory and learning capacity, were investigated using a novel object preference test (sometimes called “novel object recognition task”) according to the experimental design depicted in FIG. 1A. More specifically, the novel object preference test was carried out as follows:
Wistar Rats (outbred albino rats; Janvier Labs) sorted in different age groups, i.e. young (about 2 months), adult (about 9 months) and old (about 12-18 months), were administered with a saline solution (sodium chloride; 0.9% in water) or an aqueous solution of the test compound (LSD) by intraperitoneal injection (dose: 0.13 mg/kg).
Before the injection the animals were housed with other animals, and after the injection of the saline or test compound the animals were housed individually. For ten hours following the administration, the animals were video-recorded and stayed alone during the acute effects of the test compound (or saline). Then, the animals were allowed to recover for a period of 3 or 9 days.
After recovery, the animals were individually placed in an experiment arena (45×45×45 cm) once a day for 10 minutes over a period of 3 days (acclimatization session). The experiment arena as used herein typically includes two 3D printed bases located on the arena's floor 10 cm apart from each other, which are intended for mounting and fixing the test objects. However, said bases are empty during the acclimatization session.
Then, the 3D printed bases were mounted with the same number (i.e. 2) and type of objects (identical LEGO™ pieces each having 12 edges and 12 vertices). The animals were individually placed in the experiment arena and trained for 7 minutes (training session). At the onset of the training session, the animals were individually placed facing the same wall of the arena, with their backs to the objects.
The animals were removed from the arena and allowed to rest for 30 minutes. In the meantime, one of the objects was replaced by a new object having the same dimensions (height and base) as the previous object but a different shape (LEGO™ piece, 14 edges and 14 vertices). The animals were individually placed in the experiment arena for 3 minutes, and their preference for the novel object was evaluated by determining the time spent by the respective animals to explore the novel object (test session; FIG. 1B). At the onset of the test, the animals were individually placed facing the same wall of the arena, with their backs to the objects in a similar manner as during the training session.

healthy human subjects = test: Two-dimensional visuospatial location (memory) task in humans; type: in vivo; conditions: single oral dose 50 μg (one subject 67.5 μg), final recall about 24 h after learning
Procedure: The effects of the test compound (LSD) on cognitive functions in humans—e.g. memory, learning capacity—were investigated by means of a two-dimensional (2D) visuospatial location task in accordance with the experimental design depicted in FIG. 4A. Specifically, the visuospatial location task was carried out as follows:
Thirteen healthy human subjects learned the locations of 15 card pairs taking the test compound (LSD) or placebo in a two-run cross-over open-label design separated by two weeks. Seven subjects received 50 μg of test compound (orally) in the first run and placebo in the second run of the test. Six subjects received placebo in the first run and 50 μg of test compound (orally) in the second run of the test, except for one subject who received 67.5 μg of test compound in the second run. […]
For the two experimental runs, two parallel versions (versions A and B, respectively) of the task (matrix), each showing different pictures (card pairs) at different locations, were used. […] About 24 hours after the learning session, final recall of the memory task was evaluated in a single recall run (recall task). […] The percentage of correctly recalled card locations at final recall relative to the number of correct card locations during the last immediate recall run at learning was determined as the memory performance. […]

[1] = test system: brain-derived neurotrophic factor (BDNF); test: BDNF blood serum levels in healthy volunteers (ELISA); type: in vivo, human; conditions: for BDNF AUC levels compared to placebo / Peak BDNF levels: serum; for BDNF AUC levels compared to placebo: 0-6 h
Procedure: The present double-blind placebo-controlled, within-subjects study aimed to investigate whether low doses (0, 5, 10, and 20 mcg) of LSD affect brain-derived neurotrophic factor (BDNF) blood levels in healthy volunteers. Blood samples were collected every two hours over a six-hour period, and BDNF levels were determined afterwards in blood serum.
Twenty-four recreational psychedelic users were included in this study. Prior to inclusion, participants underwent medical screening including standard blood chemistry, hematology and urinalysis. Inclusion criteria were written informed consent; age 18-40 years; previous experience with a psychedelic drug, but not within the past three months; proficient knowledge of the English language; good physical health; free from psychotropic medication; BMI between 18-28 kg/m^2. Exclusion criteria were history of drug abuse or addiction as assessed using the DSM-IV criteria; history of psychiatric and neurological disorders; previous experience with serious side effects to psychedelic drugs (anxiety or panic attacks); cardiovascular abnormalities; hypertension; psychotic disorder in first-degree relatives; tobacco smoking (>20 cigarettes/day; excessive alcohol (>20 alcoholic consumptions/week); pregnancy or lactation.
LSD doses used were 5, 10, and 20 mcg LSD base. LSD doses were dissolved in ethanol (96% Vol) resulting in a 1 mL volume and the placebo solution consisted of 1 mL of ethanol only. Test days were scheduled with a minimum of five days in between doses. A test day started at 9:00 AM with a screen for the presence of drugs of abuse in urine (THC/opiates/cocaine/amphetamines/methamphetamines), and alcohol in breath. Women were submitted to a urine pregnancy test. When tests were negative, a venous catheter was placed to draw blood and LSD or placebo was administered orally at 10:00 AM. The study was conducted according to the code of ethics on human experimentation established by the declaration of Helsinki (1964) and the World Medical Association (2013).
Blood samples were taken at −0.5 h, +2 h, +4 h and +6 h relative to drug administration; samples were centrifuged, and serum was transferred into a clean tube and frozen subsequently at −20° C. until analysis. BDNF determination was assessed using an ELISA kit (Biosensis Mature BDNF Rapid ELISA kit: human, mouse, rat; Thebarton, Australia) as described by Akinomoto et al. in Behavioural Brain Research 2019, 359, 342-352.
Therefore, only complete within-subjects (WS) cases entered analyses, using the statistical program SPSS (version 25.0). Non-parametric bootstrapped paired-samples t-tests with trapezoidal calculated AUC's as dependent variable were used for 5 mcg (N=10), 10 mcg (N=9), and 20 mcg (N=8), and corresponding placebo. Furthermore, LSD-placebo contrasts were examined using BDNF serum levels at 0 h, +2 h, +4 h and +6 h after dose administration using non-parametric bootstrapped paired samples t-tests. Lastly, to examine time effects per dose, non-parametric bootstrapped repeated measures ANOVA (0 h, +2 h, +4 h, and +6 h) was used, with subsequent non-parametric bootstrapped paired samples t-tests.

CCN(CC)C(=O)[C@@H]1C=C2c3cccc4[nH]cc(c34)C[C@H]2N(C)C1 [LSD, (D)-lysergic acid diethylamide]
cognitive functions / novel object preference vs control group (Old animals (rats)): significant enhancement
cognitive functions / novel object preference vs control group (Old animals (rats); listed as test compound): significant increase
novel object preference (Wistar Rats; adult rats (about 9 months), 0.13 mg/kg i.p., saline baseline about 40%): about 60%
novel object preference (effect vs saline) (Wistar Rats; adult rats, FIG. 2): significantly increased
novel object preference (effect vs saline) (Wistar Rats; old rats (about 12-18 months), 0.13 mg/kg i.p.): not significant
novel object preference (Wistar Rats; young rats (about 2 months), 0.13 mg/kg i.p., saline baseline about 60%): about 80%
novel object preference (effect vs saline) (Wistar Rats; young rats, FIG. 2): significantly increased
performance in the 2D visuospatial location task vs placebo (healthy human subjects): significantly improved
performance in the 2D visuospatial location task vs placebo (healthy human subjects; listed as test compound): significantly increased
BDNF AUC levels compared to placebo ([1]; 5 mcg LSD oral, Z=−2.29, p=0.02): significantly increased
Peak BDNF levels ([1]; 5 mcg LSD, peak at four hours after administration): 8.95 ng/mL
BDNF AUC levels compared to placebo ([1]; 10 mcg LSD oral, Z=−2.67, p<0.01): significantly increased
Peak BDNF levels ([1]; 10 mcg LSD, peak at six hours after administration): 8.28 ng/mL
BDNF AUC levels compared to placebo ([1]; 20 mcg LSD oral, Z=−2.52, p<0.01): significantly increased
BDNF levels compared to placebo ([1]; +4 h after 5 mcg LSD, Z=−2.80, p<0.01): higher
BDNF levels compared to placebo ([1]; +4 h after 10 mcg LSD, Z=−1.95, p=0.05): higher
BDNF levels compared to placebo ([1]; +6 h after 5 mcg LSD, Z=−2.29, p<0.01): higher
BDNF levels compared to placebo ([1]; +6 h after 20 mcg LSD, Z=−2.52, p=0.01): higher
